Measurements reported in patent US8299048B2, “Hexahydrocyclopentyl[f]indazole sulfonamides and derivatives thereof as selective glucocorticoid receptor modulators” (Merck Sharp & Dohme Corp., priority 2008, dated 2012).

Columns and labels:
human GR [1] = biological target: T1, human GR (Homo sapiens, UniProt P04150); test: Trans-Activation Modulation of Glucocorticoid Receptor (GRAMMER), MMTV-LUC reporter, agonist mode; assay type: cell-based; design: endogenous in cells; settings: for Emax: A549, A549 cells, maximum activity, read-out: Transactivation A549 Cells GRAMMER Emax; for EC50: A549 cells, inflection point, read-out: Transactivation A549 Cells GRAMMER IP
T1 sequence (P04150 1-777): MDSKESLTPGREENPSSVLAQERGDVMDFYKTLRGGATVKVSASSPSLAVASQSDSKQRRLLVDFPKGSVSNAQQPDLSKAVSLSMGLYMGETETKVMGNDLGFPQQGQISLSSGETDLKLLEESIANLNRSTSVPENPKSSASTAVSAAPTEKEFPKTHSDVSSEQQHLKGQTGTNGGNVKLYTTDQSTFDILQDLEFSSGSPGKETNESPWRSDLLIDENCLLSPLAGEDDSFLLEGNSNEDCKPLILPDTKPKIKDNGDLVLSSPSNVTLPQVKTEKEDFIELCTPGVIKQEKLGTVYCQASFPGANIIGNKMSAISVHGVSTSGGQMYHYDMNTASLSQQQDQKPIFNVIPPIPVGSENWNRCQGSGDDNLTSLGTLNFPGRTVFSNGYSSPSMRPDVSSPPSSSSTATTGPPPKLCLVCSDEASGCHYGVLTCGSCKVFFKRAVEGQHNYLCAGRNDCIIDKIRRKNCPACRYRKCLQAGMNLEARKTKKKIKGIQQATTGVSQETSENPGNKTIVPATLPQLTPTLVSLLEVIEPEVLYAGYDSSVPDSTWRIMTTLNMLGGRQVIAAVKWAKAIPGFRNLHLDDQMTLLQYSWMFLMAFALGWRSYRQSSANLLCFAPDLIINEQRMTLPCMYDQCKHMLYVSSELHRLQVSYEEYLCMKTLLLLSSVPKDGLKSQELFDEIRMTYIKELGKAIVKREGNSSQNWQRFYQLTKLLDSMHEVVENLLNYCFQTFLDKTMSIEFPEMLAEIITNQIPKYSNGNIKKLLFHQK
Method in brief: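 Readout is luciferase from a modified MMTV LTR promoter after 24 h compound exposure alongside 10 nM dexamethasone (100% activity reference), DMSO ≤1%.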

human GR [2] = biological target: T1, human GR; test: Transrepression Assay (GITAR), TNFα-β-lactamase reporter in U937 cells; assay type: cell-based; design: U937 cells contain an endogenous glucocorticoid receptor (GR); endogenous in cells; host or cells: U937 cells stably transfected with the TNF-alpha promoter/beta-lactamase reporter; settings: for GITAR > GRAMM % SEP: GITAR Emax minus GRAMMER Emax; for EC50: U937 cells, inflection point, read-out: Transrepression U937 Cells GITAR IP
Method in brief: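 First, U937 reporter cells (TNF-α promoter–β-lactamase, native GR) received compound for 30–45 min at 37 °C. Next, PMA (5 ng/ml) and LPS (100 ng/ml) final were added for about 18 hr. Finally, CCF2-AM loading gave the read-out, with 100 nM dexamethasone as 100%.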

[3] = U-937, U937 cells, maximum activity, read-out: Transrepression U937 Cells GITAR Emax
[4] = U-937, activity repressed by 100 nM dexamethasone alone set as 100%, read-out: maximal activity in the transrepression (GITAR) assay

| SMILES | Emax (human GR [1]) [%] | EC50 (human GR [1]) [µM] | GITAR > GRAMM % SEP (human GR [2]) [%] | EC50 (human GR [2]) [µM] | Emax (human GR [2]; [3]) [%] | Emax (human GR [2]; [4]) [%] |
| --- | --- | --- | --- | --- | --- | --- |
| Cn1cc(S(=O)(=O)N(CC(O)c2ccccn2)C[C@H]2CCC3=Cc4c(cnn4-c4ccc(F)cc4)C[C@@]32C)c(C(F)(F)F)n1 (stereo partly drawn) [Example 157, N-{[(4αR,5S)-1-(4-fluorophenyl)-4α-methyl-1,4,4α,5,6,7-hexahydrocyclopenta[f]indazol-5-yl]methyl}-N-(2-hydroxy-2-pyridin-2-ylethyl)-1-methyl-3-(trifluoromethyl)-1H-pyrazole-4-sulfonamide] | 63.6 | 0.124 | 30.0 | 0.0291 | 93.6 | > 5 |
| C[C@]12Cc3cnn(-c4ccc(F)cc4)c3C=C1CC[C@@H]2CN(CCO)S(=O)(=O)c1ccccc1C(N)=O [Example 117, 2-{[{[(4αR,5S)-1-(4-fluorophenyl)-4α-methyl-1,4,4α,5,6,7-hexahydrocyclopenta[f]indazol-5-yl]methyl}(2-hydroxyethyl)amino]sulfonyl}benzamide] | 45.1 | 0.449 | 28.6 | 0.533 | 73.7 | > 5 |
| Cc1noc(C)c1S(=O)(=O)N(CC1CC1)C[C@H]1CCC2=Cc3c(cnn3-c3ccc(F)cc3)C[C@@]21C [Example 11, N-(cyclopropylmethyl)-N-{[(4αR,5S)-1-(4-fluorophenyl)-4α-methyl-1,4,4α,5,6,7-hexahydrocyclopenta[f]indazol-5-yl]methyl}-3,5-dimethylisoxazole-4-sulfonamide] | 66 | 0.235 | 23.1 | 0.206 | 89.1 | > 5 |
| COc1cccc(CCN(C[C@H]2CCC3=Cc4c(cnn4-c4ccc(F)cc4)C[C@@]32C)S(=O)(=O)CC(F)(F)F)c1 [Example 126, 2,2,2-trifluoro-N-{[(4αR,5S)-1-(4-fluorophenyl)-4α-methyl-1,4,4α,5,6,7-hexahydrocyclopenta[f]indazol-5-yl]methyl}-N-[2-(3-methoxyphenyl)ethyl]ethanesulfonamide] | 78.2 | 0.227 | 11.7 | 0.233 | 90 | > 5 |
| C[C@]12Cc3cnn(-c4ccc(F)cc4)c3C=C1CC[C@@H]2CN(CC=O)S(=O)(=O)c1ccccc1F [Example 158, 2-fluoro-N-{[(4αR,5S)-1-(4-fluorophenyl)-4α-methyl-1,4,4α,5,6,7-hexahydrocyclopenta[f]indazol-5-yl]methyl}-N-(2-oxoethyl)benzenesulfonamide] | 36.2 | 0.747 | 41.6 | 0.564 | 77.8 | > 5 |
| COCCN(C[C@H]1CCC2=Cc3c(cnn3-c3ccc(F)cc3)C[C@@]21C)S(=O)(=O)CCN1C(=O)c2ccccc2C1=O [Example 118, 2-(1,3-dioxo-1,3-dihydro-2H-isoindol-2-yl)-N-{[(4αR,5S)-1-(4-fluorophenyl)-4α-methyl-1,4,4α,5,6,7-hexahydrocyclopenta[f]indazol-5-yl]methyl}-N-(2-methoxyethyl)ethanesulfonamide] | 8.7 | 0.853 | 25.4 | 1.05 | 34.1 | > 5 |
| C[C@]12Cc3cnn(-c4ccc(F)cc4)c3C=C1CC[C@@H]2CN(CC(O)C(F)(F)F)S(=O)(=O)Cc1cccnc1 (stereo partly drawn) [Example 149, N-{[(4αR,5S)-1-(4-fluorophenyl)-4α-methyl-1,4,4α,5,6,7-hexahydrocyclopenta[f]indazol-5-yl]methyl}-1-pyridin-3-yl-N-(3,3,3-trifluoro-2-hydroxypropyl)methanesulfonamide] | 32.4 | 0.351 | 44.7 | 0.25 | 77.1 | > 5 |
| COC(=O)c1cc(Cl)ccc1CCN(C[C@H]1CCC2=Cc3c(cnn3-c3ccc(F)cc3)C[C@@]21C)S(=O)(=O)CC(F)(F)F [Example 160, methyl 5-chloro-2-(2-{{[(4αR,5S)-1-(4-fluorophenyl)-4α-methyl-1,4,4α,5,6,7-hexahydrocyclopenta[f]indazol-5-yl]methyl}[(2,2,2-trifluoroethyl)sulfonyl]amino}ethyl)benzoate] | 4.3 | 0.547 | 10.8 | 0.508 | 15.1 | > 5 |
| C[C@]12Cc3cnn(-c4ccc(F)cc4)c3C=C1CC[C@@H]2CN(CCC(N)C(F)(F)F)S(=O)(=O)CC(F)(F)F (stereo partly drawn) [Example 147, N-(3-amino-4,4,4-trifluorobutyl)-2,2,2-trifluoro-N-{[(4aR,5S)-1-(4-fluorophenyl)-4α-methyl-1,4,4α,5,6,7-hexahydrocyclopenta[f]indazol-5-yl]methyl}ethanesulfonamide] | 78.1 | 0.475 | 0.3 | 0.708 | 78.4 | > 5 |
| CCCCS(=O)(=O)N(CCc1ccccc1F)C[C@H]1CCC2=Cc3c(cnn3-c3ccc(F)cc3)C[C@@]21C [Example 102, N-[2-(2-fluorophenyl)ethyl]-N-{[(4αR,5S)-1-(4-fluorophenyl)-4α-methyl-1,4,4α,5,6,7-hexahydrocyclopenta[f]indazol-5-yl]methyl}butane-1-sulfonamide] | 78.3 | 0.203 | 8.2 | 0.0951 | 86.5 | > 5 |
| C[C@]12Cc3cnn(-c4ccc(F)cc4)c3C=C1CC[C@@H]2CN(CC1(OS(=O)(=O)CC(F)(F)F)CC1)S(=O)(=O)CC(F)(F)F [Example 136, 1-({{[(4αR,5S)-1-(4-fluorophenyl)-4α-methyl-1,4,4α,5,6,7-hexahydrocyclopenta[f]indazol-5-yl]methyl}[(2,2,2-trifluoroethyl)sulfonyl]amino}methyl)cyclopropyl 2,2,2-trifluoroethanesulfonate] | 58.8 | 0.279 | 42.0 | 0.441 | 101 | > 5 |
| COCCN(C[C@H]1CCC2=Cc3c(cnn3-c3ccc(F)cc3)C[C@@]21C)S(=O)(=O)CC(F)(F)F [Example 97, 2,2,2-trifluoro-N-{[(4αR,5S)-1-(4-fluorophenyl)-4α-methyl-1,4,4α,5,6,7-hexahydrocyclopenta[f]indazol-5-yl]methyl}-N-(2-methoxyethyl)ethanesulfonamide] | 83.8 | 0.0489 | 2.2 | 0.049 | 85.9 | > 5 |
| C[C@]12Cc3cnn(-c4ccccc4)c3C=C1CC[C@@H]2CN(CCc1ccccc1F)S(=O)(=O)CC(F)(F)F [Example 137, 2,2,2-trifluoro-N-[2-(2-fluorophenyl)ethyl]-N-{[(4αR,5S)-4α-methyl-1-phenyl-1,4,4α,5,6,7-hexahydrocyclopenta[f]indazol-5-yl]methyl}ethanesulfonamide] | 73.6 | 0.143 | 14.0 | 0.324 | 87.6 | > 5 |
| C[C@]12Cc3cnn(-c4ccc(F)cc4)c3C=C1CC[C@@H]2CN(CCc1ccccc1F)S(=O)(=O)Cc1cccnc1 [Example 124, N-[2-(2-fluorophenyl)ethyl]-N-{[(4αR,5S)-1-(4-fluorophenyl)-4α-methyl-1,4,4α,5,6,7-hexahydrocyclopenta[f]indazol-5-yl]methyl}-1-pyridin-3-ylmethanesulfonamide] | 99.2 | 0.218 | 1.3 | 0.251 | 100 | > 5 |
| COC(=O)c1ccccc1CS(=O)(=O)N(CC(O)C(F)(F)F)C[C@H]1CCC2=Cc3c(cnn3-c3ccc(F)cc3)C[C@@]21C (stereo partly drawn) [Example 162, methyl 2-({[{[(4αR,5S)-1-(4-fluorophenyl)-4α-methyl-1,4,4α,5,6,7-hexahydrocyclopenta[f]indazol-5-yl]methyl}(3,3,3-trifluoro-2-hydroxypropyl)amino]sulfonyl}methyl)benzoate] | 87.1 | 0.323 | 3.7 | 0.202 | 90.8 | > 5 |
